Data reported in patent US20160242416A1, “FUNGICIDAL ISOXAZOLINE CARBINOLS” (E I DU PONT DE NEMOURS AND COMPANY, priority 2015, published 2016).

Tests used:
Botrytis cinerea = assay: Test B: gray mold, preventive spray on tomato seedlings; conditions: 100 = 100% disease control; for Test B rating (% disease control): 10 ppm, gray mold on tomato, 0 = no control; for Test B disease control rating: 10 ppm test solution, 0 = no control relative to controls
Zymoseptoria tritici = assay: Test E: wheat leaf blotch, preventive spray on wheat seedlings; conditions: 100 = 100% disease control; for Test E rating (% disease control): 10 ppm, wheat leaf blotch, 0 = no control; for Test E disease control rating: 10 ppm test solution, 0 = no control relative to controls
Stagonospora nodorum = assay: Test D: wheat glume blotch, preventive spray on wheat seedlings; conditions: 100 = 100% disease control; for Test D rating (% disease control): 10 ppm, wheat glume blotch, 0 = no control; for Test D disease control rating: 10 ppm test solution, 0 = no control relative to controls
[1] = test system: Puccinia recondita f sp. tritici; assay: Test F: wheat leaf rust, preventive spray on wheat seedlings; conditions: 100 = 100% disease control; for Test F rating (% disease control): 10 ppm, wheat leaf rust, 0 = no control; for Test F disease control rating: 10 ppm test solution, 0 = no control relative to controls
[2] = test system: Erysiphe graminis f sp. tritici; assay: Test G: wheat powdery mildew, preventive spray on wheat seedlings; conditions: 100 = 100% disease control; for Test G rating (% disease control): 10 ppm, wheat powdery mildew, 0 = no control; for Test G disease control rating: 10 ppm test solution, 0 = no control relative to controls

Row | SMILES | Test B rating (% disease control) (Botrytis cinerea) [%] | Test E rating (% disease control) (Zymoseptoria tritici) [%] | Test D rating (% disease control) (Stagonospora nodorum) [%] | Test F rating (% disease control) [1] [%] | Test G rating (% disease control) [2] [%] | Test B disease control rating (Botrytis cinerea) [%] | Test E disease control rating (Zymoseptoria tritici) [%] | Test D disease control rating (Stagonospora nodorum) [%] | Test F disease control rating [1] [%] | Test G disease control rating [2] [%]
1 | CC(C)(C)C(O)(Cn1cncn1)C1=NOC(CSc2ccccc2)C1 (single isomer, unassigned) [Compound 73] | 25 | 0 | 62 | 9 | 56 |  |  |  |  | 
2 | OC(Cn1cncn1)(C1=NOC(COc2ccc(Cl)nc2)C1)c1ccc(Cl)cc1 (single isomer, unassigned) [Compound 102] | 0 | 0 | 0 | 18 | 69 |  |  |  |  | 
3 | OC(Cn1cncn1)(C1=NOC(Cc2ccc(F)cc2)C1)c1ccc(Cl)cc1 (single isomer, unassigned) [Compound 198] | 0 | 0 | 81 | 100 | 100 |  |  |  |  | 
4 | OC(Cn1cncn1)(C1=NOC(Cn2ccc(C(F)(F)F)n2)C1)c1ccc(Cl)cc1 (single isomer, unassigned) [Compound 195] | 0 | 0 | 0 | 99 | 100 |  |  |  |  | 
5 | CSc1ccc(C2CC(C(O)(Cn3cncn3)c3ccc(Cl)cc3)=NO2)cc1 (single isomer, unassigned) [Compound 108] | 0 | 25 | 0 | 78 | 64 |  |  |  |  | 
6 | OC(Cn1cncn1)(C1=NOC(c2ccc(Cl)cc2)C1)c1ccc(C(F)(F)F)cc1 (single isomer, unassigned) [Compound 105] | 0 | 8 | 96 | 100 | 99 |  |  |  |  | 
7 | CC(C)(C)CC(O)(Cn1cncn1)C1=NOC(Cc2ccc(C(F)(F)F)cc2)C1 (single isomer, unassigned) [Compound 226] |  |  |  |  |  | 0 | 0 | 51 | 100 | 99
8 | CC(C)(C)C(O)(Cn1cncn1)C1=NOC(c2cnccn2)C1 (single isomer, unassigned) [Compound 169] | 0 | 4 | 9 | 0 | 0 |  |  |  |  | 
9 | CC(C)(C)C(O)(Cn1cncn1)C1=NOC(CCc2ccc(Cl)cc2)C1 (single isomer, unassigned) [Compound 15] | 100 | 19 | 100 | 100 | 100 |  |  |  |  | 
10 | CC(C)(C)C(O)(Cn1cncn1)C1=NOC(Cn2ccc(C(F)(F)F)n2)C1 (single isomer, unassigned) [Compound 49] | 11 | 0 | 82 | 99 | 99 |  |  |  |  | 
11 | CC(C)(C)C(O)(Cn1cncn1)C1=NOC(COc2ccc(Br)cc2)C1 (single isomer, unassigned) [Compound 183] | 24 | 35 | 99 | 100 | 100 |  |  |  |  | 
12 | CC(C)(C)CC(O)(Cn1cncn1)C1=NOC(COc2ccc(Br)cc2)C1 (single isomer, unassigned) [Compound 170] | 0 | 68 | 99 | 100 | 99 |  |  |  |  | 
13 | CS(=O)(=O)c1ccc(C2CC(C(O)(Cn3cncn3)c3ccc(Cl)cc3)=NO2)cc1 (single isomer, unassigned) [Compound 113] | 0 | 9 | 0 | 100 | 98 |  |  |  |  | 
14 | OC(Cn1cncn1)(C1=NOC(c2ccc(Cl)cc2)C1)C1CCCCC1 (single isomer, unassigned) [Compound 197] | 11 | 0 | 92 | 100 | 98 |  |  |  |  | 
15 | OC(Cn1cncn1)(C1=NOC(COc2ccc(OCc3ccccc3)cc2)C1)c1ccc(Cl)cc1 (single isomer, unassigned) [Compound 69] | 27 | 25 | 38 | 100 | 94 |  |  |  |  | 
16 | CC(C)(C)C(O)(Cn1cncn1)C1=NOC(CSc2ccccc2)C1 (single isomer, unassigned) [Compound 74] | 44 | 13 | 0 | 0 | 56 |  |  |  |  | 
17 | OC(Cn1cncn1)(C1=NOC(Cc2ccccc2)C1)c1ccc(Cl)cc1 (single isomer, unassigned) [Compound 137] | 0 | 26 | 77 | 99 | 99 |  |  |  |  | 
18 | OC(Cn1cncn1)(C1=NOC(Cn2ccc(C(F)(F)F)n2)C1)c1ccc(Cl)cc1 (single isomer, unassigned) [Compound 194] | 0 | 0 | 11 | 100 | 99 |  |  |  |  | 
19 | CC(C)(C)C(O)(Cn1cncn1)C1=NOC(COc2ccc(Cl)cc2)C1 (stereo not drawn) [Compound 175, α-[5-[(4-chlorophenoxy)methyl]-4,5-dihydro-3-isoxazolyl]-α-(1,1-dimethylethyl)-1H-1,2,4-triazole-1-ethanol] | 0 | 1 | 100 | 100 | 100 |  |  |  |  | 
20 | OC(Cn1cncn1)(C1=NOC(c2ccc(Oc3ccccc3)cc2)C1)c1ccc(Cl)cc1 (single isomer, unassigned) [Compound 142] | 0 | 91 | 86 | 100 | 99 |  |  |  |  | 
21 | CC(C)(C)C(O)(Cn1cncn1)C1=NOC(COc2ccc(I)cc2)C1 (single isomer, unassigned) [Compound 185] | 0 | 0 | 100 | 100 | 99 |  |  |  |  | 
22 | CC(C)(C)C(O)(Cn1cncn1)C1=NOC(Cn2cc(Br)cn2)C1 (single isomer, unassigned) [Compound 42] | 0 | 0 | 42 | 9 | 0 |  |  |  |  | 
23 | CC(C)(C)C(O)(Cn1cncn1)C1=NOC(COc2ccc(C(F)(F)F)cc2)C1 (single isomer, unassigned) [Compound 81] | 57 | 95 | 100 | 100 | 100 |  |  |  |  | 
24 | OC(Cn1cncn1)(C1=NOC(COc2ccc(F)cc2)C1)c1ccc(Cl)cc1 (single isomer, unassigned) [Compound 162] | 0 | 76 | 96 | 100 | 100 |  |  |  |  | 
25 | CC(C)(C)C(O)(Cn1cncn1)C1=NOC(COc2cccc(Br)c2)C1 (single isomer, unassigned) [Compound 232] |  |  |  |  |  | 98 | 41 | 99 | 100 | 100
26 | CCCCC(O)(Cn1cncn1)C1=NOC(c2ccc(Cl)cc2)C1 (single isomer, unassigned) [Compound 156] | 0 | 19 | 98 | 100 | 100 |  |  |  |  | 
27 | Cn1nc(C(F)(F)F)cc1OCC1CC(C(O)(Cn2cncn2)C(C)(C)C)=NO1 (single isomer, unassigned) [Compound 56] | 0 | 0 | 20 | 97 | 94 |  |  |  |  | 
28 | CC(C)(C)CC(O)(Cn1cncn1)C1=NOC(c2ccc(Cl)cc2)C1 (single isomer, unassigned) [Compound 138] | 17 | 0 | 100 | 100 | 100 |  |  |  |  | 
